# Experimental data from US9777017B2, “Tricyclic fused thiophene derivatives as JAK inhibitors” (Incyte Corporation, priority 2012, dated 2017).
# Assays:
# Type in all cases: biochemical
# human JAK1 [1] = target: human JAK1 (Homo sapiens, UniProt P23458); assay: In vitro JAK kinase assay (HTRF, phosphorylation of a biotinylated peptide), JAK1; conditions: 1 mM ATP
# Procedure: (§1) Compounds herein were tested for inhibitory activity of JAK targets according to the following in vitro assay described in Park et al., Analytical Biochemistry 1999, 269, 94-104. The catalytic domains of human JAK1 (a.a. 837-1142), JAK2 (a.a. 828-1132) and JAK3 (a.a. 781-1124) were expressed using baculovirus in insect cells and purified. The catalytic activity of JAK1, JAK2 or JAK3 was assayed by measuring the phosphorylation of a biotinylated peptide. The phosphorylated peptide was detected by homogenous time resolved fluorescence (HTRF). IC50s of compounds were measured for each kinase in the 40 μL reactions that contain the enzyme, ATP and 500 nM peptide in 50 mM Tris (pH 7.8) buffer with 100 mM NaCl, 5 mM DTT, and 0.1 mg/mL (0.01%) BSA. For the 1 mM IC50 measurements, ATP concentration in the reactions was 1 mM. Reactions were carried out at room temperature for 1 hour and then stopped with 20 μL 45 mM EDTA, 300 nM SA-APC, 6 nM Eu-Py20 in assay buffer (Perkin Elmer, Boston, Mass.). Binding to the Europium labeled antibody took place for 40 minutes and HTRF signal was measured on a PHERA star plate reader (BMG, Cary, N.C.). The Example compounds were each tested in the Example A assay (see Table 1 for data for the compounds of the examples as tested by the assay of Example A at 1 mM ATP).
# human JAK1 [2] = assay: as above; conditions: ratio of IC50s, 1 mM ATP
# Procedure: as §1
# human JAK2 = human JAK2 (Homo sapiens (Human), UniProt O60674); assay: In vitro JAK kinase assay (HTRF, phosphorylation of a biotinylated peptide), JAK2; parameters: key to JAK2 IC50 (nM): +indicates an IC50 of ≦100 nM; ++indicates an IC50 of ≦1000 nM; +++indicates an IC50 of ≦2000 nM; ++++indicates an IC50 of >2000 nM; +++++indicates that the IC50 was greater than the highest concentration tested; conditions: 1 mM ATP
# Procedure: as §1
# Sequence of human JAK2 (O60674 828-1132): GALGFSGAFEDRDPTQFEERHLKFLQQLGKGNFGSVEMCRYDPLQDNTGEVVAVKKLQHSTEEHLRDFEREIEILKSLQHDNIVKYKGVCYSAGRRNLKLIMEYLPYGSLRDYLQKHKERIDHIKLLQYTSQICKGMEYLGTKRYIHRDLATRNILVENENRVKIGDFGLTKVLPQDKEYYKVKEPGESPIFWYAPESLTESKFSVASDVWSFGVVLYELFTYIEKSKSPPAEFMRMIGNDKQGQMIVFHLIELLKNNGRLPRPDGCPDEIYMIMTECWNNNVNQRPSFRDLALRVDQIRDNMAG
SMILES,IC50 (human JAK1 [1]),JAK2/JAK1 (human JAK1 [2]),JAK2 IC50 (nM) (human JAK2),IC50 (human JAK2)
"C[C@@H](O)c1nc2cnc3ccsc3c2n1[C@H]1CCCN(CCC#N)C1 [Example 56, 3-((3S)-3-{2-[(1R)-1-Hydroxyethyl]-1H-imidazo[4,5-d]thieno[3,2-b]pyridin-1-yl}piperidin-1-yl)propanenitrile]",≤ 1000 nM,>10,+++++,
"C[C@@H](O)c1nc2cnc3ccsc3c2n1[C@H]1CCCN(C(=O)CCCC#N)C1 [Example 59, 5-((3S)-3-{2-[(1R)-1-Hydroxyethyl]-1H-imidazo[4,5-d]thieno[3,2-b]pyridin-1-yl}piperidin-1-yl)-5-oxopentanenitrile]",≤ 1000 nM,>10,+++++,
"C[C@@H](O)c1nc2cnc3ccsc3c2n1C1CCN(CCCC(F)(F)F)CC1 [Example 60, (1R)-1-{1-[1-(4,4,4-Trifluorobutyl)piperidin-4-yl]-1H-imidazo[4,5-d]thieno[3,2-b]pyridin-2-yl}ethanol]",≤ 1000 nM,>10,+++++,
"C[C@@H](O)c1nc2cnc3ccsc3c2n1C1CCN(CC#N)CC1.O=C(O)C(F)(F)F [Example 61, (4-{2-[(1R)-1-Hydroxyethyl]-1H-imidazo[4,5-d]thieno[3,2-b]pyridin-1-yl}piperidin-1-yl)acetonitrile trifluoroacetate]",≤ 1000 nM,>10,+++++,
"C[C@@H](O)c1nc2cnc3ccsc3c2n1[C@H]1CCN(CCC#N)C1 [Example 62, 3-((3S)-3-{2-[(1R)-1-Hydroxyethyl]-1H-imidazo[4,5-d]thieno[3,2-b]pyridin-1-yl}pyrrolidin-1-yl)propanenitrile]",≤ 1000 nM,>10,,> 2000 nM
"C[C@@H](O)c1nc2cnc3ccsc3c2n1[C@H]1CCN(C(=O)CC#N)C1 [Example 63, 3-((3S)-3-{2-[(1R)-1-Hydroxyethyl]-1H-imidazo[4,5-d]thieno[3,2-b]pyridin-1-yl}pyrrolidin-1-yl)-3-oxopropanenitrile]",≤ 2000 nM,>6,+++++,
"C[C@@H](O)c1nc2cnc3ccsc3c2n1[C@H]1CCN(CCCC#N)C1 [Example 65, 4-((3S)-3-{2-[(1R)-1-Hydroxyethyl]-1H-imidazo[4,5-d]thieno[3,2-b]pyridin-1-yl}pyrrolidin-1-yl)butanenitrile]",≤ 1000 nM,>10,+++++,
"C[C@@H](O)c1nc2cnc3ccsc3c2n1[C@H]1CCN(CCCCC#N)C1 [Example 66, 5-((3S)-3-{2-[(1R)-1-Hydroxyethyl]-1H-imidazo[4,5-d]thieno[3,2-b]pyridin-1-yl}pyrrolidin-1-yl)pentanenitrile]",≤ 1000 nM,>10,+++++,
"C[C@@H](O)c1nc2cnc3ccsc3c2n1[C@H]1CC[C@H](CC#N)[C@H](N)C1 [Example 67, ((1R,2R,4S)-2-Amino-4-{2-[(1R)-1-hydroxyethyl]-1H-imidazo[4,5-d]thieno[3,2-b]pyridin-1-yl}cyclohexyl)acetonitrile]",≤ 1000 nM,>10,,> 2000 nM
"CC(=O)NC(C)c1nc2cnc3ccsc3c2n1[C@H]1CC[C@H](CC#N)OC1 (stereo partly drawn) [Example 69, N-(1-{1-[(3S,6R)-6-(Cyanomethyl)tetrahydro-2H-pyran-3-yl]-1H-imidazo[4,5-d]thieno[3,2-b]pyridin-2-yl}ethyl)acetamide]",≤ 1000 nM,>10,+++++,
"CNC(C)c1nc2cnc3ccsc3c2n1[C@H]1CC[C@H](CC#N)OC1 (stereo partly drawn) [Example 70, ((2R,5S)-5-{2-[1-(Methylamino)ethyl]-1H-imidazo[4,5-d]thieno[3,2-b]pyridin-1-yl}tetrahydro-2H-pyran-2-yl)acetonitrile]",≤ 1000 nM,>10,,> 2000 nM
"N#CCc1nc2cnc3ccsc3c2n1[C@H]1CC[C@@H](CC#N)OC1 [Example 74, {(2S,5S)-5-[2-(Cyanomethyl)-1H-imidazo[4,5-d]thieno[3,2-b]pyridin-1-yl]tetrahydro-2H-pyran-2-yl}acetonitrile]",≤ 1000 nM,>10,+++++,

# Further lines, results first:
IC50 (human JAK1 [1]),JAK2/JAK1 (human JAK1 [2]),JAK2 IC50 (nM) (human JAK2),IC50 (human JAK2),SMILES
≤ 1000 nM,>10,+++++,,"CCOC(=O)N1CCC[C@H](n2c([C@@H](C)O)nc3cnc4ccsc4c32)C1 [Example 50, Ethyl (3S)-3-{2-[(1R)-1-hydroxyethyl]-1H-imidazo[4,5-d]thieno[3,2-b]pyridin-1-yl}piperidine-1-carboxylate]"
≤ 1000 nM,>10,,> 2000 nM,"C[C@@H](O)c1nc2cnc3ccsc3c2n1[C@H]1CCCN(C(=O)CC#N)C1.O=C(O)C(F)(F)F [Example 51, 3-((3S)-3-{2-[(1R)-1-Hydroxyethyl]-1H-imidazo[4,5-d]thieno[3,2-b]pyridin-1-yl}piperidin-1-yl)-3-oxopropanenitrile trifluoroacetate]"
≤ 1000 nM,>10,+++++,,"C[C@@H](O)c1nc2cnc3ccsc3c2n1[C@H]1CCCN(C(=O)CCc2cn[nH]c2)C1 [Example 53, (1R)-1-(1-{(3S)-1-[3-(1H-Pyrazol-4-yl)propanoyl]piperidin-3-yl}-1H-imidazo[4,5-d]thieno[3,2-b]pyridin-2-yl)ethanol]"
≤ 1000 nM,>10,+++++,,"C[C@@H](O)c1nc2cnc3ccsc3c2n1[C@H]1CCCN(C(=O)CCc2cccnc2)C1 [Example 54, (1R)-1-{1-[(3S)-1-(3-Pyridin-3-ylpropanoyl)piperidin-3-yl]-1H-imidazo[4,5-d]thieno[3,2-b]pyridin-2-yl}ethanol]"
≤ 1000 nM,>10,+++++,,"CC(CC(=O)N1CCC[C@H](n2c([C@@H](C)O)nc3cnc4ccsc4c32)C1)c1ccccc1 (stereo partly drawn) [Example 55, (1R)-1-{1-[(3S)-1-(3-Phenylbutanoyl)piperidin-3-yl]-1H-imidazo[4,5-d]thieno[3,2-b]pyridin-2-yl}ethanol]"
≤ 100 nM,>10,,> 2000 nM,C[C@@H](O)c1nc2cnc3ccsc3c2n1[C@H]1CCCN(C(=O)CCc2ccccc2)C1 [Example 57]
≤ 100 nM,>10,+++++,,"C[C@@H](O)c1nc2cnc3ccsc3c2n1[C@H]1CCCN(C(=O)CCC#N)C1 [Example 58, 4-((3S)-3-{2-[(1R)-1-Hydroxyethyl]-1H-imidazo[4,5-d]thieno[3,2-b]pyridin-1-yl}piperidin-1-yl)-4-oxobutanenitrile]"
≤ 100 nM,>10,+++++,,"C[C@@H](O)c1nc2cnc3ccsc3c2n1[C@H]1CCN(CCCC(F)(F)F)C1 [Example 64, (1R)-1-{1-[(3S)-1-(4,4,4-Trifluorobutyl)pyrrolidin-3-yl]-1H-imidazo[4,5-d]thieno[3,2-b]pyridin-2-yl}ethanol]"
≤ 100 nM,>10,,≤ 2000 nM,"CC(N)c1nc2cnc3ccsc3c2n1[C@H]1CC[C@H](CC#N)OC1.O=C(O)C(F)(F)F (stereo partly drawn) [Example 68, {(2R,5S)-5-[2-(1-Aminoethyl)-1H-imidazo[4,5-d]thieno[3,2-b]pyridin-1-yl]tetrahydro-2H-pyran-2-yl}acetonitrile trifluoroacetate]"
≤ 100 nM,>10,,≤ 1000 nM,"CC(F)c1nc2cnc3ccsc3c2n1[C@H]1CC[C@H](CC#N)OC1 (stereo partly drawn) [Example 71, {(2R,5S)-5-[2-(1-Fluoroethyl)-1H-imidazo[4,5-d]thieno[3,2-b]pyridin-1-yl]tetrahydro-2H-pyran-2-yl}acetonitrile]"
≤ 100 nM,>10,,≤ 1000 nM,"N#CCc1nc2cnc3ccsc3c2n1[C@H]1CC[C@H](CC#N)OC1 [Example 73, {(2R,5S)-5-[2-(Cyanomethyl)-1H-imidazo[4,5-d]thieno[3,2-b]pyridin-1-yl]tetrahydro-2H-pyran-2-yl}acetonitrile]"
≤ 100 nM,>10,,≤ 2000 nM,"C[C@@H](O)c1nc2cnc3ccsc3c2n1[C@H]1CC[C@H](CNS(C)(=O)=O)OC1 [Example 75, N-[((2R,5S)-5-{2-[(1R)-1-Hydroxyethyl]-1H-imidazo[4,5-d]thieno[3,2-b]pyridin-1-yl}tetrahydro-2H-pyran-2-yl)methyl]methanesulfonamide]"
